Test results reported in patent US20230322788A1, “IMIDAZOTRIAZINE AND PYRROLOPYRIMIDINE DERIVATIVES AS KRAS G12C INHIBITORS” (BeiGene, Ltd., priority 2020, published 2023).

Target: KRAS (aa 1-169) G12C, C51S, C80L, C118S (Homo sapiens (Human), UniProt P01116, C118S/C51S/C80L/G12C)
Assay: KRAS G12C SOS1-mediated nucleotide exchange / cRaf RBD binding FRET assay (Biochemical Functional Assay)
Method: The KRAS ([…]) G12C, C51S, C80L, C118S with a His-tag was expressed, purified and loaded with GDP in house. All protein and substrate solutions were prepared in assay buffer containing 25 mM HEPES pH7.5, 10 mM MgCl2, and 0.01% Triton X-100. Purified GDP-loaded KRAS (aa 1-169) G12C, C51S, C80L, C118S protein was pre-incubated with a serially diluted compound at 24° C. for 3 hrs. Purified SOS1 (aa 564-1049) protein, GTPYS (Sigma) and GST-cRaf RBD (aa 1-149) were then added to each well and incubated at 24° C. for additional 3 hrs. […] Following the incubation, Mab Anti-6HIS-Tb cryptate (Cisbio) and Mab Anti GST-XL665 (Cisbio) were added and further incubated at 24° C. for 3 hrs. The binding interaction between active GTPγS KRAS G12C and GST-cRaf RBD brings the Tb and XL665 into close proximity enabling an increased FRET signal (Ex337 nm, Em665 nm/620 nm). The inhibition percentage of nucleotide exchange reaction in presence of increasing concentrations of compounds was calculated based on the ratio of fluorescence at 665 nm to that at 620 nm detected on a BMG PHERAstar FSX instrument. The IC50 value of each compound was calculated from fitting the data to the four-parameter logistic model by Dotmatics.

[1] = GDP-loaded KRAS G12C pre-incubated with compound at 24° C. for 3 hrs, SOS1, GTPγS, GST-cRaf RBD, inhibition of nucleotide exchange
[2] = same assay, the cell prints uM although the column head says nmol

KRAS (aa 1-169) G12C, C51S, C80L, C118S, sequence (P01116 other isoform, or with tags, fused parts or gaps G12C/C51S/C80L/C118S): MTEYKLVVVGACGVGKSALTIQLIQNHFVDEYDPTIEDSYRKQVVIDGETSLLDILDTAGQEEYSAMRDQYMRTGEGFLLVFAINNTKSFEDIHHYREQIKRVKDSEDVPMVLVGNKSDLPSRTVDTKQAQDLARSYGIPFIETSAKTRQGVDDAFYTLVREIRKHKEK

SMILES | IC50 [1] | IC50 [2]
C=CC(=O)N1CCN(c2nc(OC[C@@H]3CCCN3C)nn3c(Cc4cccc5ccccc45)cnc23)CC1 [Compound A1, (S)-1-(4-(2-((1-methylpyrrolidin-2-yl)methoxy)-7-(naphthalen-1-ylmethyl)imidazo[2,1-f][1,2,4]triazin-4-yl)piperazin-1-yl)prop-2-en-1-one] | 3.28 µM | 
C=CC(=O)N1CCN(c2nc(OC[C@@H]3CCCN3C)nn3c(Cc4cc(O)cc5ccccc45)cnc23)CC1 [Compound A2, (S)-1-(4-(7-((3-hydroxynaphthalen-1-yl)methyl)-2-((1-methylpyrrolidin-2-yl)methoxy)imidazo[2,1-f][1,2,4]triazin-4-yl)piperazin-1-yl)prop-2-en-1-one] | 0.427 µM | 
C=CC(=O)N1CCN(c2nc(OC[C@@H]3CCCN3C)nn3c(-c4cc(OC)cc5ccccc45)cnc23)C[C@@H]1CC#N [Compound A3, 2-((S)-1-acryloyl-4-(7-(3-methoxynaphthalen-1-yl)-2-(((S)-1-methylpyrrolidin-2-yl)methoxy)imidazo[2,1-f][1,2,4]triazin-4-yl)piperazin-2-yl)acetonitrile] |  | > 10 µM
C=CC(=O)N1CCN(c2nc(OC[C@@H]3CCCN3C)nn3c(Cc4cccc5ccccc45)cnc23)C[C@@H]1CC#N [Compound A4, 2-((S)-1-acryloyl-4-(2-(((S)-1-methylpyrrolidin-2-yl)methoxy)-7-(naphthalen-1-ylmethyl)imidazo[2,1-f][1,2,4]triazin-4-yl)piperazin-2-yl)acetonitrile] | 0.0467 µM | 
C=CC(=O)N1CCN(c2nc(OC[C@@H]3CCCN3C)nn3c(Cc4cc(O)cc5ccccc45)cnc23)C[C@@H]1CC#N [Compound A5, 2-((S)-1-acryloyl-4-(7-((3-hydroxynaphthalen-1-yl)methyl)-2-(((S)-1-methylpyrrolidin-2-yl)methoxy)imidazo[2,1-f][1,2,4]triazin-4-yl)piperazin-2-yl)acetonitrile] | 0.029 µM | 
C=CC(=O)N1CCN(c2nc(OC[C@@H]3CCCN3C)nn3c(Cc4cccc5cccc(Cl)c45)cnc23)C[C@@H]1CC#N [Compound A6, 2-((S)-1-acryloyl-4-(7-((8-chloronaphthalen-1-yl)methyl)-2-(((S)-1-methylpyrrolidin-2-yl)methoxy)imidazo[2,1-f][1,2,4]triazin-4-yl)piperazin-2-yl)acetonitrile] | 0.1 µM | 
C=CC(=O)N1CCN(c2nc(OC[C@@H]3CCCN3C)nn3c(Cc4cccc5cccc(C)c45)cnc23)C[C@@H]1CC#N [Compound A7, 2-((S)-1-acryloyl-4-(7-((8-methylnaphthalen-1-yl)methyl)-2-(((S)-1-methylpyrrolidin-2-yl)methoxy)imidazo[2,1-f][1,2,4]triazin-4-yl)piperazin-2-yl)acetonitrile] | 0.0478 µM | 
C=CC(=O)N1CCN(c2nc(OC[C@@H]3CCCN3C)nn3c(Cc4ccc5ccccc5c4)cnc23)C[C@@H]1CC#N [Compound A8, 2-((S)-1-acryloyl-4-(2-(((S)-1-methylpyrrolidin-2-yl)methoxy)-7-(naphthalen-2-ylmethyl)imidazo[2,1-f][1,2,4]triazin-4-yl)piperazin-2-yl)acetonitrile] | 7.7 µM | 
C=CC(=O)N1CCN(c2nc(OC[C@@H]3CCCN3C)nn3c(Cc4cccc5c4CCO5)cnc23)C[C@@H]1CC#N [Compound A9, 2-((S)-1-acryloyl-4-(7-((2,3-dihydrobenzofuran-4-yl)methyl)-2-(((S)-1-methylpyrrolidin-2-yl)methoxy)imidazo[2,1-f][1,2,4]triazin-4-yl)piperazin-2-yl)acetonitrile] | 1.06 µM | 
C=CC(=O)N1CCN(c2nc(OC[C@@H]3CCCN3C)nn3c(Cc4ccc(OC)c5ccccc45)cnc23)C[C@@H]1CC#N [Compound A10, 2-((S)-1-acryloyl-4-(7-((4-methoxynaphthalen-1-yl)methyl)-2-(((S)-1-methylpyrrolidin-2-yl)methoxy)imidazo[2,1-f][1,2,4]triazin-4-yl)piperazin-2-yl)acetonitrile] | 0.187 µM | 
C=CC(=O)N1CCN(c2nc(OC[C@@H]3CCCN3C)nn3c(Cc4c(F)cccc4Cl)cnc23)C[C@@H]1CC#N [Compound A11, 2-((S)-1-acryloyl-4-(7-(2-chloro-6-fluorobenzyl)-2-(((S)-1-methylpyrrolidin-2-yl)methoxy)imidazo[2,1-f][1,2,4]triazin-4-yl)piperazin-2-yl)acetonitrile] | 0.215 µM | 
C=CC(=O)N1CCN(c2nc(OC[C@@H]3CCCN3C)nn3c(Cc4ccccc4Cl)cnc23)C[C@@H]1CC#N [Compound A12, 2-((S)-1-acryloyl-4-(7-(2-chlorobenzyl)-2-(((S)-1-methylpyrrolidin-2-yl)methoxy)imidazo[2,1-f][1,2,4]triazin-4-yl)piperazin-2-yl)acetonitrile] | 0.217 µM | 
C=CC(=O)N1CCN(c2nc(OC[C@@H]3CCCN3C)nn3c(Cc4cccc5c4OCC5)cnc23)C[C@@H]1CC#N [Compound A13, 2-((S)-1-acryloyl-4-(7-((2,3-dihydrobenzofuran-7-yl)methyl)-2-(((S)-1-methylpyrrolidin-2-yl)methoxy)imidazo[2,1-f][1,2,4]triazin-4-yl)piperazin-2-yl)acetonitrile] | 0.101 µM | 
C=CC(=O)N1CCN(c2nc(OC[C@@H]3CC(F)(F)CN3C)nn3c(Cc4cccc5ccccc45)cnc23)C[C@@H]1CC#N [Compound A14, 2-((S)-1-acryloyl-4-(2-(((S)-4,4-difluoro-1-methylpyrrolidin-2-yl)methoxy)-7-(naphthalen-1-ylmethyl)imidazo[2,1-f][1,2,4]triazin-4-yl)piperazin-2-yl)acetonitrile] | 0.506 µM | 
C=CC(=O)N1CCN(c2nc(OC[C@@H]3CCCN3C)nn3c(Cc4cccc5[nH]ncc45)cnc23)C[C@@H]1CC#N [Compound A15, 2-((S)-4-(7-((1H-indazol-4-yl)methyl)-2-(((S)-1-methylpyrrolidin-2-yl)methoxy)imidazo[2,1-f][1,2,4]triazin-4-yl)-1-acryloylpiperazin-2-yl)acetonitrile] | 1.18 µM | 
C=CC(=O)N1CCN(c2nc(OC[C@@H]3CCCN3C)nn3c(Cc4cccc5[nH]ncc45)cnc23)C[C@@H]1CC(N)=O [Compound A16, 2-((S)-4-(7-((1H-indazol-4-yl)methyl)-2-(((S)-1-methylpyrrolidin-2-yl)methoxy)imidazo[2,1-f][1,2,4]triazin-4-yl)-1-acryloylpiperazin-2-yl)acetamide] |  | > 10 µM
C=CC(=O)N1CCN(c2nc(OC[C@@H]3CCCN3C)nn3c(Cc4cccc5ccccc45)cnc23)[C@@H](C)C1 [Compound A17, 1-((S)-3-methyl-4-(2-(((S)-1-methylpyrrolidin-2-yl)methoxy)-7-(naphthalen-1-ylmethyl)imidazo[2,1-f][1,2,4]triazin-4-yl)piperazin-1-yl)prop-2-en-1-one] | 2.93 µM | 
C=CC(=O)N1CCN(c2nc(OC[C@@H]3CCCN3C)nn3c(Cc4ccccc4C(F)(F)F)cnc23)C[C@@H]1CC#N [Compound A18, 2-((S)-1-acryloyl-4-(2-(((S)-1-methylpyrrolidin-2-yl)methoxy)-7-(2-(trifluoromethyl)benzyl)imidazo[2,1-f][1,2,4]triazin-4-yl)piperazin-2-yl)acetonitrile] | 0.235 µM | 
C=CC(=O)N1CCN(c2nc(OC[C@@H]3CCCN3C)nn3c(Cc4ccc(O)c5ccccc45)cnc23)C[C@@H]1CC#N [Compound A19, 2-((S)-1-acryloyl-4-(7-((4-hydroxynaphthalen-1-yl)methyl)-2-(((S)-1-methylpyrrolidin-2-yl)methoxy)imidazo[2,1-f][1,2,4]triazin-4-yl)piperazin-2-yl)acetonitrile] | 0.0096 µM | 
C=CC(=O)N1CCN(c2nc(OC[C@@H]3CCCN3C)nn3c(Cc4c(O)cccc4F)cnc23)C[C@@H]1CC#N [Compound A20, 2-((S)-1-acryloyl-4-(7-(2-fluoro-6-hydroxybenzyl)-2-(((S)-1-methylpyrrolidin-2-yl)methoxy)imidazo[2,1-f][1,2,4]triazin-4-yl)piperazin-2-yl)acetonitrile] | 0.0191 µM | 
C=CC(=O)N1CCN(c2nc(OC[C@@H]3CCCN3C)nn3c(Cc4c(O)ccc5ccccc45)cnc23)C[C@@H]1CC#N [Compound A21, 2-((S)-1-acryloyl-4-(7-((2-hydroxynaphthalen-1-yl)methyl)-2-(((S)-1-methylpyrrolidin-2-yl)methoxy)imidazo[2,1-f][1,2,4]triazin-4-yl)piperazin-2-yl)acetonitrile] | 0.0208 µM | 
C=CC(=O)N1CCN(c2nc(OC[C@@H]3CCCN3C)nn3c(C4CCc5ccccc54)cnc23)C[C@@H]1CC#N (stereo partly drawn) [Compound A22, 2-((2S)-1-acryloyl-4-(7-(2,3-dihydro-1H-inden-1-yl)-2-(((S)-1-methylpyrrolidin-2-yl)methoxy)imidazo[2,1-f][1,2,4]triazin-4-yl)piperazin-2-yl)acetonitrile] | 0.201 µM | 
C=CC(=O)N1CCN(c2nc(OC[C@@H]3CCCN3C)nn3c(C(=O)c4cccc5ccccc45)cnc23)C[C@@H]1CC#N [Compound A23, 2-((S)-4-(7-(1-naphthoyl)-2-(((S)-1-methylpyrrolidin-2-yl)methoxy)imidazo[2,1-f][1,2,4]triazin-4-yl)-1-acryloylpiperazin-2-yl)acetonitrile] | 0.489 µM | 
